Values of other authors in patent US20210130806A1, “ENGINEERED BACTERIA EXPRESSING RACEMASE FOR TREATING DISEASES ASSOCIATED WITH HYPERAMMONEMIA” (Synlogic Operating Company, Inc., priority 2017, published 2021).

Columns and labels:
E. coli = conditions: in vitro and in clinical studies
hepatic encephalopathy = conditions: compared with placebo, over a 6-month period

CO[C@H]1/C=C/O[C@@]2(C)Oc3c(C)c(O)c4c(O)c(c5c(nc6cc(C)ccn65)c4c3C2=O)NC(=O)/C(C)=C\C=C\[C@H](C)[C@H](O)[C@@H](C)[C@@H](O)[C@@H](C)[C@H](OC(C)=O)[C@@H]1C [Rifaximin]
activity against E. coli (E. coli): active | risk of an episode of hepatic encephalopathy (hepatic encephalopathy): significantly reduce
